Measurements published in ChEMBL document CHEMBL3046580, “Synthesis of Some 2-Aryloxymethyl-1, 3, 4-thiadiazolo[2, 3-b]-quinazolin-4-ones and 2-Aryloxymethyl-5-substituted-1, 3, 4-thiadiazolo[3, 2-a]-s-triazin-7-thiones as Potential Biocides” (1990).

Columns and labels:
Type in all cases: functional
Abutilon theophrasti = assay: Herbicidal activity against Abutilon theophrasti (velvetleaf) assessed as killing at 6 kg/ha by post-emergent activity assay
Aspergillus niger [1] = assay: Antifungal activity against Aspergillus niger assessed as fungus colony inhibition at 1000 ppm measured after 96 hr by agar dilution method
Setaria viridis = assay: Herbicidal activity against Setaria viridis (green foxtail) assessed as killing at 6 kg/ha by post-emergent activity assay
Aspergillus niger [2] = assay: Antifungal activity against Aspergillus niger assessed as fungus colony inhibition at 10 ppm measured after 96 hr by agar dilution method
Bipolaris oryzae [3] = assay: Antifungal activity against Bipolaris oryzae assessed as fungus colony inhibition at 10 ppm measured after 96 hr by agar dilution method
Echinochloa crus-galli = assay: Herbicidal activity against Echinochloa crus-galli (barnyard grass) assessed as killing at 6 kg/ha by post-emergent activity assay
Bipolaris oryzae [4] = assay: Antifungal activity against Bipolaris oryzae assessed as fungus colony inhibition at 100 ppm measured after 96 hr by agar dilution method
Aspergillus niger [5] = assay: Antifungal activity against Aspergillus niger assessed as fungus colony inhibition at 100 ppm measured after 96 hr by agar dilution method
Sorghum halepense = assay: Herbicidal activity against Sorghum halepense (Johnson grass) assessed as killing at 6 kg/ha by post-emergent activity assay
Triticum aestivum = assay: Herbicidal activity against Triticum aestivum (wheat) assessed as killing at 6 kg/ha by post-emergent activity assay
Bipolaris oryzae [6] = assay: Antifungal activity against Bipolaris oryzae assessed as fungus colony inhibition at 1000 ppm measured after 96 hr by agar dilution method

Structure (SMILES)	Activity (Abutilon theophrasti) [%]	inhibition at 1000 ppm (Aspergillus niger [1]) [%]	Activity (Setaria viridis) [%]	inhibition at 10 ppm (Aspergillus niger [2]) [%]	inhibition at 10 ppm (Bipolaris oryzae [3]) [%]	Activity (Echinochloa crus-galli) [%]	inhibition at 100 ppm (Bipolaris oryzae [4]) [%]	inhibition at 100 ppm (Aspergillus niger [5]) [%]	Activity (Sorghum halepense) [%]	Activity (Triticum aestivum) [%]	inhibition at 1000 ppm (Bipolaris oryzae [6]) [%]
O=c1c2ccccc2nc2sc(COc3ccccc3Cl)nn12	20	51.3	70	19.2	30.8	20	40.1	30.2	40	60	61.4
S=c1nc(COc2ccc(Cl)cc2Cl)n2nc(COc3ccc(Cl)cc3Cl)sc2n1	100	88.6	100	64.5	61.4	100	78.6	74.4	100	20	90.4
S=c1nc(COc2ccc(Cl)cc2Cl)n2nc(COc3ccc(Cl)cc3)sc2n1	30	87.2	20	68.4	60.6	30	75.4	74.2	40	50	88.2
Cc1ccc(OCc2nn3c(-c4ccc(Cl)cc4)nc(=S)nc3s2)c(C)c1	90	52.3	90	20.4	31.2	90	49.1	31.4	80	0	60
Cc1ccc(OCc2nn3c(C)nc(=S)nc3s2)c(C)c1	20	51.4	10	18.6	27.4	40	39.3	30	60	50	59.5
O=C(COc1ccc(Cl)cc1Cl)NC(=S)Nc1nnc(COc2ccc(Cl)cc2)s1		47		13	24.2		36.2	25.4			57.2
O=C(COc1ccc(Cl)cc1Cl)NC(=S)Nc1nnc(COc2ccc(Cl)cc2Cl)s1		46.4		12.4	21.9		32	25.2			54
Cc1ccc(OCc2nnc(NC(=S)NC(=O)c3ccc(Cl)cc3)s2)c(C)c1		50.3		18.4	22.8		32.4	29			55.2
CC(=O)NC(=S)Nc1nnc(COc2ccc(C)cc2C)s1		55.2		20.5	20.2		38.4	31.4			60.2
O=c1c2ccccc2nc2sc(COc3ccc(Cl)cc3Cl)nn12	20	43.1	30	12.6	23.4	80	31.8	25	60	50	54.4
Cc1ccc(OCc2nn3c(=O)c4ccccc4nc3s2)cc1	10	46	40	13.7	25.2	10	35	25.4	50	40	56.2
Cc1ccc(OCc2nn3c(=O)c4ccccc4nc3s2)cc1C	50	42.2	50	12.8	21.3	50	38.6	24.4	60	40	50.2
O=C(O)c1ccccc1Nc1nnc(COc2ccccc2Cl)s1		47.3		14	22.2		30.4	25.8			52.4
Cc1ccc(OCc2nnc(Nc3ccccc3C(=O)O)s2)cc1		52.2		20.9	22.2		39.1	31			59.1
O=C(O)c1ccccc1Nc1nnc(COc2ccc(Cl)cc2Cl)s1		84.8		68.5	60.8		75.3	73			87.4
Cc1ccc(OCc2nnc(Nc3ccccc3C(=O)O)s2)cc1C		50.2		19	25.2		30.4	29.1			57.4
COC(=O)Nc1nc2ccccc2[nH]1 [CARBENDAZIM]		98.8		78.6	78.3		85.2	84.4			98
